Values joined by “and” are separate entries in the source; they are usually repeats but may differ in a detail not shown here. Equal values may be shown once.
Experiments:
Format in all cases: physicochemical
[1] = Physical stability on storage: microscopy
Experimental: (§1) As a secondary analytical method, the micronized and the non-micronized oxycodone analyzed by laser diffraction with results shown in Table 1, were analyzed by optical microscopy to evaluate particle size and the results are shown in Table 2. Sample aliquots (˜50 mg for micronized and ˜225 mg for non-micronized) were dispersed in 10 ml of sunflower oil and viewed on a Nikon microscope equipped with a 10× objective. Particle size (mean diameter) was determined using Image Pro® Plus software and expressed as a number % undersize. The particle size values determined by optical microscopy as shown in Table 2 are consistent with the laser diffraction particle size data shown in Table 1.
(§2) Samples of Example 2 and additional samples comprising micronized and non-micronized oxycodone useful for exemplary dosage forms are tested for their chemical stability and physical stability. Based on a comparison of stability data from micronized and non-micronized samples stored at both 25° C./60% RH and 40 C.°/75% RH, no differences are observed in the impurity profile through three months of study as shown in Tables 4 and 5 for exemplary lots. The impurities analyzed include (HOXY), 14-Hydroxycodeinone; (DHOXYN), 7,8-Dihydro-8,14-Dihydroxycodeinone; (DHOXY), 7,8-Dihydro-14-hydroxycodeine; (OXYE), Oxycodone ethylenolate; (OXYN), 1-Hydroxyoxycodone and Oxycodone N-oxide. Most of the impurities are found to be below the limit of quantitation (LOQ), except for HOXY and DHOXYN which were unchanged at 0.1%. […] The solid state stability of the micronized oxycodone is monitored for particle size, XRPD, DSC, and microscopy as shown in Table 6.

[2] = Chemical stability on storage: assay and impurities
Experimental: as §2

[3] = Physical stability on storage: particle size (Dv90) by laser diffraction
[4] = Physical stability on storage: DSC onset melt
Experimental: The micronized lots may also be analyzed by Differential Scanning Calorimetry (DSC). DSC is performed on a TA instrument Q100 using a heating ramp from 25-235° C. at a rate of 5° C./min. […] The sharp endotherm observed is consistent with a crystalline material and the absence of other thermal events proves that there were no polymorph transformations during melting.
as §2

[5] = Particle size by optical microscopy, number % undersize; conditions: mean diameter
Experimental: as §1

[6] = Particle size distribution by laser diffraction (Malvern Mastersizer 2000), oxycodone base
[7] = Table 1 analysis, lot 2 in duplicate
[8] = additional laser diffraction analysis, Table 3

COc1ccc2c3c1O[C@H]1C(=O)CC[C@@]4(O)[C@@H](C2)N(C)CC[C@]314 [Lot 3, oxycodone]
Microscopy, ≦10 μ ([1]; 25° C./60% RH, 3 mo): 98.3% | Microscopy, ≦10 μ ([1]; 40° C./75% RH, 3 mo): 94.5% | 1-HydroxyOXY ([2]; 5° C./60% RH, 1 mo (Table 4)): <LOQ | 1-HydroxyOXY ([2]; 5° C./60% RH, 3 mo (Table 4)): <LOQ | Assay ([2]; 25° C./60% RH, 1 mo): 98.5% | DHOXY (7,8-Dihydro-14-hydroxycodeine) ([2]; 25° C./60% RH, 1 mo): <LOQ | DHOXYN (7,8-Dihydro-8,14-Dihydroxycodeinone) ([2]; 25° C./60% RH, 1 mo): 0.10% | HOXY (14-Hydroxycodeinone) ([2]; 25° C./60% RH, 1 mo): 0.08% | OXYE (Oxycodone ethylenolate) ([2]; 25° C./60% RH, 1 mo): <LOQ | OXYN ([2]; 25° C./60% RH, 1 mo): <LOQ | Other (impurities; Table 5: >0.05%) ([2]; 25° C./60% RH, 1 mo): <LOQ | Total impurities ([2]; 25° C./60% RH, 1 mo): 0.18% | Assay ([2]; 25° C./60% RH, 3 mo): 98.5% | DHOXY (7,8-Dihydro-14-hydroxycodeine) ([2]; 25° C./60% RH, 3 mo): <LOQ | DHOXYN (7,8-Dihydro-8,14-Dihydroxycodeinone) ([2]; 25° C./60% RH, 3 mo): 0.10% | HOXY (14-Hydroxycodeinone) ([2]; 25° C./60% RH, 3 mo): 0.08% | OXYE (Oxycodone ethylenolate) ([2]; 25° C./60% RH, 3 mo): <LOQ | OXYN ([2]; 25° C./60% RH, 3 mo): <LOQ | Other (impurities; Table 5: >0.05%) ([2]; 25° C./60% RH, 3 mo): <LOQ | Total impurities ([2]; 25° C./60% RH, 3 mo): 0.18% | 1-HydroxyOXY ([2]; 40° C./75% RH, 1 mo): <LOQ | Assay ([2]; 40° C./75% RH, 1 mo): 100.1% | DHOXY (7,8-Dihydro-14-hydroxycodeine) ([2]; 40° C./75% RH, 1 mo): <LOQ | DHOXYN (7,8-Dihydro-8,14-Dihydroxycodeinone) ([2]; 40° C./75% RH, 1 mo): 0.10% | HOXY (14-Hydroxycodeinone) ([2]; 40° C./75% RH, 1 mo): 0.08% | OXYE (Oxycodone ethylenolate) ([2]; 40° C./75% RH, 1 mo): <LOQ | OXYN ([2]; 40° C./75% RH, 1 mo): <LOQ | Other (impurities; Table 5: >0.05%) ([2]; 40° C./75% RH, 1 mo): <LOQ | Total impurities ([2]; 40° C./75% RH, 1 mo): 0.18% | 1-HydroxyOXY ([2]; 40° C./75% RH, 3 mo): <LOQ | Assay ([2]; 40° C./75% RH, 3 mo): 99.5% | DHOXY (7,8-Dihydro-14-hydroxycodeine) ([2]; 40° C./75% RH, 3 mo): <LOQ | DHOXYN (7,8-Dihydro-8,14-Dihydroxycodeinone) ([2]; 40° C./75% RH, 3 mo): 0.10% | HOXY (14-Hydroxycodeinone) ([2]; 40° C./75% RH, 3 mo): 0.08% | OXYE (Oxycodone ethylenolate) ([2]; 40° C./75% RH, 3 mo): <LOQ | OXYN ([2]; 40° C./75% RH, 3 mo): <LOQ | Other (impurities; Table 5: >0.05%) ([2]; 40° C./75% RH, 3 mo): <LOQ | Total impurities ([2]; 40° C./75% RH, 3 mo): 0.18% | 1-HydroxyOXY ([2]; Time 0): <LOQ | Assay ([2]; Time 0): 100.4% | DHOXY (7,8-Dihydro-14-hydroxycodeine) ([2]; Time 0): <LOQ | DHOXYN (7,8-Dihydro-8,14-Dihydroxycodeinone) ([2]; Time 0): 0.11% | HOXY (14-Hydroxycodeinone) ([2]; Time 0): 0.07% | OXYE (Oxycodone ethylenolate) ([2]; Time 0): <LOQ | OXYN ([2]; Time 0): <LOQ | Other (impurities; Table 5: >0.05%) ([2]; Time 0): <LOQ | Total impurities ([2]; Time 0): 0.18% | Particle size (Dv90) ([3]; 25° C./60% RH, 1 month): 9 μ | Particle size (Dv90) ([3]; 25° C./60% RH, 3 months): 10 μ | Particle size (Dv90) ([3]; 25° C./60% RH, 6 months): 10 μ | Particle size (Dv90) ([3]; 25° C./60% RH, 9 months): 8 μ | Particle size (Dv90) ([3]; 25° C./60% RH, 12 months): 8 μ | Particle size (Dv90) ([3]; 40° C./75% RH, 1 month): 9 μ | Particle size (Dv90) ([3]; 40° C./75% RH, 3 months): 11 μ | Particle size (Dv90) ([3]; 40° C./75% RH, 6 months): 10 μ | Particle size (Dv90) ([3]; Time 0): 6 μ | DSC Onset Melt ([4]; 25° C./60% RH, 3 mo): 221.9 °C | DSC Onset Melt ([4]; 40° C./75% RH, 3 mo): 221.9 °C

COc1ccc2c3c1O[C@H]1C(=O)CC[C@@]4(O)[C@@H](C2)N(C)CC[C@]314 [Lot 2, oxycodone]
Microscopy, ≦10 μ ([1]; 25° C./60% RH, 3 mo): 99.5% | Microscopy, ≦10 μ ([1]; 40° C./75% RH, 3 mo): 98.3% | Microscopy, ≦10 μ ([1]; Time 0): 99.5% | 1-HydroxyOXY ([2]; 5° C./60% RH, 1 mo (Table 4)): <LOQ | 1-HydroxyOXY ([2]; 5° C./60% RH, 3 mo (Table 4)): <LOQ | Assay ([2]; 25° C./60% RH, 1 mo): 99.8% | DHOXY (7,8-Dihydro-14-hydroxycodeine) ([2]; 25° C./60% RH, 1 mo): <LOQ | DHOXYN (7,8-Dihydro-8,14-Dihydroxycodeinone) ([2]; 25° C./60% RH, 1 mo): 0.10% | HOXY (14-Hydroxycodeinone) ([2]; 25° C./60% RH, 1 mo): 0.08% | OXYE (Oxycodone ethylenolate) ([2]; 25° C./60% RH, 1 mo): <LOQ | OXYN ([2]; 25° C./60% RH, 1 mo): <LOQ | Other (impurities; Table 5: >0.05%) ([2]; 25° C./60% RH, 1 mo): <LOQ | Total impurities ([2]; 25° C./60% RH, 1 mo): 0.18% | Assay ([2]; 25° C./60% RH, 3 mo): 99.8% | DHOXY (7,8-Dihydro-14-hydroxycodeine) ([2]; 25° C./60% RH, 3 mo): <LOQ | DHOXYN (7,8-Dihydro-8,14-Dihydroxycodeinone) ([2]; 25° C./60% RH, 3 mo): 0.10% | HOXY (14-Hydroxycodeinone) ([2]; 25° C./60% RH, 3 mo): 0.08% | OXYE (Oxycodone ethylenolate) ([2]; 25° C./60% RH, 3 mo): <LOQ | OXYN ([2]; 25° C./60% RH, 3 mo): <LOQ | Other (impurities; Table 5: >0.05%) ([2]; 25° C./60% RH, 3 mo): <LOQ | Total impurities ([2]; 25° C./60% RH, 3 mo): 0.18% | 1-HydroxyOXY ([2]; 40° C./75% RH, 1 mo): <LOQ | Assay ([2]; 40° C./75% RH, 1 mo): 99.6% | DHOXY (7,8-Dihydro-14-hydroxycodeine) ([2]; 40° C./75% RH, 1 mo): <LOQ | DHOXYN (7,8-Dihydro-8,14-Dihydroxycodeinone) ([2]; 40° C./75% RH, 1 mo): 0.10% | HOXY (14-Hydroxycodeinone) ([2]; 40° C./75% RH, 1 mo): 0.08% | OXYE (Oxycodone ethylenolate) ([2]; 40° C./75% RH, 1 mo): <LOQ | OXYN ([2]; 40° C./75% RH, 1 mo): <LOQ | Other (impurities; Table 5: >0.05%) ([2]; 40° C./75% RH, 1 mo): <LOQ | Total impurities ([2]; 40° C./75% RH, 1 mo): 0.18% | 1-HydroxyOXY ([2]; 40° C./75% RH, 3 mo): <LOQ | Assay ([2]; 40° C./75% RH, 3 mo): 99.2% | DHOXY (7,8-Dihydro-14-hydroxycodeine) ([2]; 40° C./75% RH, 3 mo): <LOQ | DHOXYN (7,8-Dihydro-8,14-Dihydroxycodeinone) ([2]; 40° C./75% RH, 3 mo): 0.10% | HOXY (14-Hydroxycodeinone) ([2]; 40° C./75% RH, 3 mo): 0.08% | OXYE (Oxycodone ethylenolate) ([2]; 40° C./75% RH, 3 mo): <LOQ | OXYN ([2]; 40° C./75% RH, 3 mo): <LOQ | Other (impurities; Table 5: >0.05%) ([2]; 40° C./75% RH, 3 mo): <LOQ | Total impurities ([2]; 40° C./75% RH, 3 mo): 0.18% | 1-HydroxyOXY ([2]; Time 0): <LOQ | Assay ([2]; Time 0): 100.7% | DHOXY (7,8-Dihydro-14-hydroxycodeine) ([2]; Time 0): <LOQ | DHOXYN (7,8-Dihydro-8,14-Dihydroxycodeinone) ([2]; Time 0): 0.10% | HOXY (14-Hydroxycodeinone) ([2]; Time 0): 0.08% | OXYE (Oxycodone ethylenolate) ([2]; Time 0): <LOQ | OXYN ([2]; Time 0): <LOQ | Other (impurities; Table 5: >0.05%) ([2]; Time 0): <LOQ | Total impurities ([2]; Time 0): 0.18% | % ≦ 1μ [5]: 25.3% | % ≦ 5μ [5]: 92.2% | % ≦ 10μ [5]: 99.5% | Particle size (Dv90) ([3]; 25° C./60% RH, 3 months): 10 μ | Particle size (Dv90) ([3]; 40° C./75% RH, 3 months): 10 μ | Particle size (Dv90) ([3]; Time 0): 4 μ | DSC Onset Melt ([4]; 25° C./60% RH, 3 mo): 221.8 °C | DSC Onset Melt ([4]; 40° C./75% RH, 3 mo): 221.9 °C | DSC Onset Melt ([4]; Time 0): 221.8 °C | Particle size (Dv10) [6, 7]: 0.5, 0.5 μ | Particle size (Dv50) [6, 7]: 1.5 μ and 2.2 μ | Particle size (Dv90) [6, 7]: 3.1 μ and 5.1 μ | Particle size (Dv10) [6, 8]: 0.6 μ | Particle size (Dv50) [6, 8]: 2.1 μ | Particle size (Dv90) [6, 8]: 5.8 μ

Reference: US9339463B2, “Micronized opioid compositions having a specific particle size distribution” (priority 2007, dated 2016)
